Measured values from ChEMBL document CHEMBL4630904, “Data for DCP probe BI 207127” (2021).
Activity calls are given as the source filed them. No cut-off for these calls is given here.

Legend:
[1] = target: Tyrosine-protein kinase Lck (Homo sapiens) (UniProt P06239); assay: LCK_CE Eurofins SafetyScreen44 (BI); settings: Compound concentration 10.0 uM
[2] = target: Glutamate receptor ionotropic, NMDA 2A (Rattus norvegicus) (UniProt Q00959); assay: NMDA/R Eurofins SafetyScreen44 (BI); settings: Compound concentration 10.0 uM
[3] = target: 3',5'-cyclic-AMP phosphodiesterase 4D (Homo sapiens) (UniProt Q08499); assay: PDE4D2 Eurofins SafetyScreen44 (BI); settings: Compound concentration 10.0 uM
[4] = target: MAO-A (amine oxidase [flavin-containing] A) (Rattus norvegicus, UniProt P21396); assay: MAO-A_ANTAG Eurofins SafetyScreen44 (BI); set-up: mode of action antagonist; scale not given: the % may be the effect or the level left; settings: compound concentration 10 uM, read-out: % Ctrl
[5] = target: Alpha-1A adrenergic receptor (Homo sapiens) (UniProt P35348); assay: ALPHA1AH_ANTAG Eurofins SafetyScreen44 (BI); settings: filed as antagonist, Compound concentration 10.0 uM
[6] = target: Sodium-dependent dopamine transporter (Homo sapiens) (UniProt Q01959); assay: DATRANS/HUM Eurofins SafetyScreen44 (BI); settings: Compound concentration 10.0 uM
Sodium-dependent dopamine transporter (Homo sapiens), sequence (Q01959 whole entry): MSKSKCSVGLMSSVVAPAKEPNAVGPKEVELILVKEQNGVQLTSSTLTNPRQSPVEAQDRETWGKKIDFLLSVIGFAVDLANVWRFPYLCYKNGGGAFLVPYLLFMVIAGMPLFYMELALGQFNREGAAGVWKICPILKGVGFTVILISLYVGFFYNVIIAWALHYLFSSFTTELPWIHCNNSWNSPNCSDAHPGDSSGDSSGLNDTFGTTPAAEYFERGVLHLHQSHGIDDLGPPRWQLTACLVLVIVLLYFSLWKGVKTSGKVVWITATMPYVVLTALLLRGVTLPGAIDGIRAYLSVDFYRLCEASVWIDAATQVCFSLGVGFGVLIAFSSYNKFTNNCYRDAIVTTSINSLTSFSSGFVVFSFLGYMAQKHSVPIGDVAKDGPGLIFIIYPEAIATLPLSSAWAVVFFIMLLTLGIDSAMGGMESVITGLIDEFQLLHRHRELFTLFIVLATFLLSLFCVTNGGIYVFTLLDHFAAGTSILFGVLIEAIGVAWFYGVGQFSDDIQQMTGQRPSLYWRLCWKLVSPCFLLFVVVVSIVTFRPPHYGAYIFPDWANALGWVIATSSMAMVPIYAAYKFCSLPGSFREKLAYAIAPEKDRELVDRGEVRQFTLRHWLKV

[7] = target: Cannabinoid receptor 1 (Homo sapiens) (UniProt P21554); assay: CB1(HU)_AGON Eurofins SafetyScreen44 (BI); settings: filed as agonist; Compound concentration 10.0 uM
[8] = target: D(1A) dopamine receptor (Homo sapiens) (UniProt P21728); assay: D1/H Eurofins SafetyScreen44 (BI); settings: filed as antagonist, Compound concentration 10.0 uM
[9] = target: Cannabinoid receptor 2 (Homo sapiens) (UniProt P34972); assay: CB2/PERIPH/H Eurofins SafetyScreen44 (BI); settings: Compound concentration 10.0 uM
[10] = target: 5-hydroxytryptamine receptor 2A (Homo sapiens) (UniProt P28223); assay: 5HT2AH_AGON Eurofins SafetyScreen44 (BI); settings: filed as agonist, Compound concentration 10.0 uM
[11] = target: Histamine H2 receptor (Homo sapiens) (UniProt P25021); assay: H2/APT/HS Eurofins SafetyScreen44 (BI); settings: filed as antagonist, Compound concentration 10.0 uM
[12] = target: Alpha-2A adrenergic receptor (Homo sapiens) (UniProt P08913); assay: ALPHA2A/HU Eurofins SafetyScreen44 (BI); settings: Compound concentration 10.0 uM
Alpha-2A adrenergic receptor (Homo sapiens), sequence (P08913 whole entry): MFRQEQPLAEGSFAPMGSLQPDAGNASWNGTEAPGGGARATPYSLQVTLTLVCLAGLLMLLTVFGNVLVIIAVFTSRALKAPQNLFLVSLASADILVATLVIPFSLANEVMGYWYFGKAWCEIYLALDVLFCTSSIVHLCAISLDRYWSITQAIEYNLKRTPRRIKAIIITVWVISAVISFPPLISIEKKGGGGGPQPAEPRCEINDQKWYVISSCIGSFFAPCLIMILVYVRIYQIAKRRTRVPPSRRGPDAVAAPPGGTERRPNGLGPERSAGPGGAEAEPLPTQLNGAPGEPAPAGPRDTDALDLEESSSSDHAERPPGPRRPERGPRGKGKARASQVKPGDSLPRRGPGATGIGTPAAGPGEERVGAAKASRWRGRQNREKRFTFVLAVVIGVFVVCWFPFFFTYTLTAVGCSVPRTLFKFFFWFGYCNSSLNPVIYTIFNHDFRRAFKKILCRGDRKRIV

[13] = target: Kappa-type opioid receptor (Homo sapiens) (UniProt P41145); assay: KAPPA(KOP)_HU Eurofins SafetyScreen44 (BI); settings: Compound concentration 10.0 uM
Kappa-type opioid receptor (Homo sapiens), sequence (P41145 whole entry): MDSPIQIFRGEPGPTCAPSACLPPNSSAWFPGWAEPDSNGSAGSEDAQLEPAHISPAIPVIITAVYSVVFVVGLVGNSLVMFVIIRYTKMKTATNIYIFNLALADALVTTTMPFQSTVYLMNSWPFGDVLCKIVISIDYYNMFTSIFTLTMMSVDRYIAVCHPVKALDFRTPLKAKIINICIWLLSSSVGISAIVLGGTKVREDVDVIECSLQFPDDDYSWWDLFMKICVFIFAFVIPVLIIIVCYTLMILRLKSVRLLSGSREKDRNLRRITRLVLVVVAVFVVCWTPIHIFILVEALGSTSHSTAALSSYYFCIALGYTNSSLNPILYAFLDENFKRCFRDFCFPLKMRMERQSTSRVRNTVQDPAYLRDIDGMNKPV

[14] = target: Adenosine receptor A2a (Homo sapiens) (UniProt P29274); assay: A2A/H Eurofins SafetyScreen44 (BI); settings: filed as antagonist, Compound concentration 10.0 uM
[15] = target: Potassium voltage-gated channel subfamily V member 1 (Rattus norvegicus) (UniProt P97557); assay: K+/VOLT/RA Eurofins SafetyScreen44 (BI); settings: Compound concentration 10.0 uM
[16] = target: Delta-type opioid receptor (Homo sapiens) (UniProt P41143); assay: DELTA2/H Eurofins SafetyScreen44 (BI); settings: Compound concentration 10.0 uM
[17] = target: Neuronal acetylcholine receptor; alpha4/beta2 (Homo sapiens) (UniProt P17787+P43681); assay: N_NEURO_A4B2 Eurofins SafetyScreen44 (BI); assay type: protein-complex assay; settings: filed as agonist, Compound concentration 10.0 uM
[18] = target: Muscarinic acetylcholine receptor M1 (Homo sapiens) (UniProt P11229); assay: M1/H Eurofins SafetyScreen44 (BI); settings: Compound concentration 10.0 uM
[19] = target: Endothelin-1 receptor (Homo sapiens) (UniProt P25101); assay: ETA/H Eurofins SafetyScreen44 (BI); settings: Compound concentration 10.0 uM
[20] = target: Vasopressin V1a receptor (Homo sapiens) (UniProt P37288); assay: V1A/HUM Eurofins SafetyScreen44 (BI); settings: Compound concentration 10.0 uM
[21] = target: Histamine H1 receptor (Homo sapiens) (UniProt P35367); assay: H1/PYRIL/HS Eurofins SafetyScreen44 (BI); settings: Compound concentration 10.0 uM
[22] = target: Gamma-aminobutyric acid receptor subunit alpha-1 (Rattus norvegicus) (UniProt P62813); assay: BZD/CENTR/R Eurofins SafetyScreen44 (BI); settings: Compound concentration 10.0 uM
[23] = target: 5-hydroxytryptamine receptor 3A (Homo sapiens) (UniProt P46098); assay: 5HT3/H Eurofins SafetyScreen44 (BI); settings: Compound concentration 10.0 uM
5-hydroxytryptamine receptor 3A (Homo sapiens), sequence (P46098 whole entry): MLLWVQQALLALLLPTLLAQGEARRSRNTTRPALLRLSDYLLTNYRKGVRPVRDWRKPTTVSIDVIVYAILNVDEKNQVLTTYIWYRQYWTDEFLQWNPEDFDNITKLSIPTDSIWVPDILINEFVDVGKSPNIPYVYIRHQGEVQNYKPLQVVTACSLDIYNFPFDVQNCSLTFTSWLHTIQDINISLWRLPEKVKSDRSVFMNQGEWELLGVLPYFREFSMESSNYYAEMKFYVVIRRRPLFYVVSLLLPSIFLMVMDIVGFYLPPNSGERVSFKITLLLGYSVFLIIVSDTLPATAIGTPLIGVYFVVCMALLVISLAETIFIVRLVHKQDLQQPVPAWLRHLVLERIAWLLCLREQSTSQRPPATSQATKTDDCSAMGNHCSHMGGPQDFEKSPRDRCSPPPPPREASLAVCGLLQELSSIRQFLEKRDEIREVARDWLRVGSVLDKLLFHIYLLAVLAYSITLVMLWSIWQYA

[24] = target: Androgen receptor (Homo sapiens) (UniProt P10275); assay: ANDROGEN/H Eurofins SafetyScreen44 (BI); settings: Compound concentration 10.0 uM
[25] = target: 5-hydroxytryptamine receptor 1A (Homo sapiens) (UniProt P08908); assay: 5HT1A/H Eurofins SafetyScreen44 (BI); settings: Compound concentration 10.0 uM
[26] = target: Angiotensin-converting enzyme (Homo sapiens) (UniProt P12821); assay: ACE(HU_AMTCH400) Eurofins SafetyScreen44 (BI); settings: Compound concentration 10.0 uM
[27] = target: 5-hydroxytryptamine receptor 2B (Homo sapiens) (UniProt P41595); assay: 5HT2B/H AG Eurofins SafetyScreen44 (BI); settings: filed as agonist, Compound concentration 10.0 uM
[28] = target: Cholecystokinin receptor type A (Homo sapiens) (UniProt P32238); assay: CCKA/H Eurofins SafetyScreen44 (BI); settings: Compound concentration 10.0 uM
[29] = target: Glucocorticoid receptor (Homo sapiens) (UniProt P04150); assay: GCORTICOID/H Eurofins SafetyScreen44 (BI); settings: Compound concentration 10.0 uM
[30] = target: Beta-1 adrenergic receptor (Homo sapiens) (UniProt P08588); assay: BETA1/HUM Eurofins SafetyScreen44 (BI); settings: Compound concentration 10.0 uM
Beta-1 adrenergic receptor (Homo sapiens), sequence (P08588 whole entry, looked up): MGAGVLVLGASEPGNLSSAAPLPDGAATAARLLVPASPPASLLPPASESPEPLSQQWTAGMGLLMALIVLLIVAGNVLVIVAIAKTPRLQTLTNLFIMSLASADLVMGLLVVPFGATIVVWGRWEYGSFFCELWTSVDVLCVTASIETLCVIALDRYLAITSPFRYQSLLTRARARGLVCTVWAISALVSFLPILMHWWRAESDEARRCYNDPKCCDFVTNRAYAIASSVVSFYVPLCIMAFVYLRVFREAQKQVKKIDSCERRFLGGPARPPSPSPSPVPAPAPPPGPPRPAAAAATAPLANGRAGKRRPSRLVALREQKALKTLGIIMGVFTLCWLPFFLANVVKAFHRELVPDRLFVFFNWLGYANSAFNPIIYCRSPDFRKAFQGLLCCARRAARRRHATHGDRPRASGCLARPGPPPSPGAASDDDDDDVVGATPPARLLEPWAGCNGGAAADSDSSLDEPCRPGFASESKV

[31] = target: Beta-2 adrenergic receptor (Homo sapiens) (UniProt P07550); assay: BETA2/HUM Eurofins SafetyScreen44 (BI); settings: filed as antagonist, Compound concentration 10.0 uM
[32] = target: 5-hydroxytryptamine receptor 1B (Homo sapiens) (UniProt P28222); assay: 5HT1B(H) Eurofins SafetyScreen44 (BI); settings: filed as antagonist, Compound concentration 10.0 uM
[33] = target: Sodium-dependent noradrenaline transporter (Homo sapiens) (UniProt P23975); assay: NEUP/H Eurofins SafetyScreen44 (BI); settings: Compound concentration 10.0 uM
[34] = target: Voltage-dependent L-type calcium channel subunit alpha-1C (dihydropyridine site) (Rattus norvegicus, UniProt P22002); assay: CA+/DHPSI/R Eurofins SafetyScreen44 (BI); set-up: mode of action inhibitor; settings: rat brain, probe [3H](+)PN200-110, compound concentration 10 uM, read-out: % Ctrl
[35] = target: Prostaglandin G/H synthase 2 (Homo sapiens) (UniProt P35354); assay: COX-2 Eurofins SafetyScreen44 (BI); settings: Compound concentration 10.0 uM
hERG (KCNH2) = hERG (KCNH2) (Homo sapiens, UniProt Q12809); assay: HERG_DOFETILIDE Eurofins SafetyScreen44 (BI); set-up: mode of action inhibitor; settings: probe [3H] Dofetilide, compound concentration 10 uM, read-out: % Ctrl
hERG (KCNH2), sequence (Q12809 whole entry): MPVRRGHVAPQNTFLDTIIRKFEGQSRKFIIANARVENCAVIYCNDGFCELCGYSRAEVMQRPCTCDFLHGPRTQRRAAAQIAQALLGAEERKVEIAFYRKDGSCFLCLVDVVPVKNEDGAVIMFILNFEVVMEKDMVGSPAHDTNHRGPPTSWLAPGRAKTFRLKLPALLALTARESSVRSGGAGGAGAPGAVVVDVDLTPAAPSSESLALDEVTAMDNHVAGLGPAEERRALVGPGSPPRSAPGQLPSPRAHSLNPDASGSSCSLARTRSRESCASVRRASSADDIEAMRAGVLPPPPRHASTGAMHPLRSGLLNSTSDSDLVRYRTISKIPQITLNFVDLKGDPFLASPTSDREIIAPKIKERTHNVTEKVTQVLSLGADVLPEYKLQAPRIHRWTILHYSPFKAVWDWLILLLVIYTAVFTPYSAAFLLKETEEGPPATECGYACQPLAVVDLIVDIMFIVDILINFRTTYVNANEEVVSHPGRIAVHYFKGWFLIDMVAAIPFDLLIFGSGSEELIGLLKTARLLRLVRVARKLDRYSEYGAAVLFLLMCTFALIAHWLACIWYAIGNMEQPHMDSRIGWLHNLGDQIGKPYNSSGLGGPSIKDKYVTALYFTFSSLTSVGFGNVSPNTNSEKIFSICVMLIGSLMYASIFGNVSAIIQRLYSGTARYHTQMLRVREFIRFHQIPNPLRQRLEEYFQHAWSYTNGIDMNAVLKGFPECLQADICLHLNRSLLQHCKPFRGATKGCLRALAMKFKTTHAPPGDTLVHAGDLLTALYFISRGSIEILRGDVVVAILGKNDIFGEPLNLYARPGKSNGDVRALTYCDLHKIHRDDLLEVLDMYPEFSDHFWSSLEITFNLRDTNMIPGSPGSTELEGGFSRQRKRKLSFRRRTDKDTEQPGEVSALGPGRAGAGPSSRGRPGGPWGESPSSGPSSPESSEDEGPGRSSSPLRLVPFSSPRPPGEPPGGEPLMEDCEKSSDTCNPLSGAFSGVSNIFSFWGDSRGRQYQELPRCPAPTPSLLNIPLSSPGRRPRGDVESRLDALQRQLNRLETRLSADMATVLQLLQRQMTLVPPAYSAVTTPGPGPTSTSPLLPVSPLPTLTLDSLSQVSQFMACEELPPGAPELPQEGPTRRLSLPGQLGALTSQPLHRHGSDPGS

[36] = target: RNA-directed RNA polymerase (Hepacivirus hominis, UniProt O39930); assay: Enzymatic assay with HCV NS5B polymerase D21
RNA-directed RNA polymerase, sequence (O39930 whole entry): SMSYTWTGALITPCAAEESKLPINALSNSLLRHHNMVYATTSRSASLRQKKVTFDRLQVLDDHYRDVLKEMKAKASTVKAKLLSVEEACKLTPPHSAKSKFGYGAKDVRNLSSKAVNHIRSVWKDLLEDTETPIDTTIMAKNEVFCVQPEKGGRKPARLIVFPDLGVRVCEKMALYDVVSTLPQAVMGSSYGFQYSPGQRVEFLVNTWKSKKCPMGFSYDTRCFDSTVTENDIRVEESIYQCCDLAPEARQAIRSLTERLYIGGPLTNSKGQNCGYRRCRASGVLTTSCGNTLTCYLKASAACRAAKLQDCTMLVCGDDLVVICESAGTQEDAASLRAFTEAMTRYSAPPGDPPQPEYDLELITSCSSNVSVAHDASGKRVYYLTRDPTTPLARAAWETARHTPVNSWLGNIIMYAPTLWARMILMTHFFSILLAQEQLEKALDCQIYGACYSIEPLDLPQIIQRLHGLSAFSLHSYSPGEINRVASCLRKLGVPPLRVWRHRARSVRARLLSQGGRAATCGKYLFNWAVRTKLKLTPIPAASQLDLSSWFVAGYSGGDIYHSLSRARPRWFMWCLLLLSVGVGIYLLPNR

[37] = target: Sodium-dependent serotonin transporter (Homo sapiens) (UniProt P31645); assay: SLC6A4/H Eurofins SafetyScreen44 (BI); settings: filed as antagonist, Compound concentration 10.0 uM
[38] = target: Mu-type opioid receptor (Homo sapiens) (UniProt P35372); assay: MU/H Eurofins SafetyScreen44 (BI); settings: Compound concentration 10.0 uM
[39] = target: D(2) dopamine receptor (Homo sapiens) (UniProt P14416); assay: D2SH_AGON Eurofins SafetyScreen44 (BI); settings: filed as agonist, Compound concentration 10.0 uM
[40] = target: cGMP-inhibited 3',5'-cyclic phosphodiesterase 3A (Homo sapiens) (UniProt Q14432); assay: PDE3A Eurofins SafetyScreen44 (BI); settings: Compound concentration 10.0 uM
[41] = target: Muscarinic acetylcholine receptor M3 (Homo sapiens) (UniProt P20309); assay: M3/H Eurofins SafetyScreen44 (BI); settings: Compound concentration 10.0 uM
[42] = target: Prostaglandin G/H synthase 1 (Homo sapiens) (UniProt P23219); assay: COX-1 Eurofins SafetyScreen44 (BI); settings: Compound concentration 10.0 uM
Prostaglandin G/H synthase 1 (Homo sapiens), sequence (P23219 whole entry): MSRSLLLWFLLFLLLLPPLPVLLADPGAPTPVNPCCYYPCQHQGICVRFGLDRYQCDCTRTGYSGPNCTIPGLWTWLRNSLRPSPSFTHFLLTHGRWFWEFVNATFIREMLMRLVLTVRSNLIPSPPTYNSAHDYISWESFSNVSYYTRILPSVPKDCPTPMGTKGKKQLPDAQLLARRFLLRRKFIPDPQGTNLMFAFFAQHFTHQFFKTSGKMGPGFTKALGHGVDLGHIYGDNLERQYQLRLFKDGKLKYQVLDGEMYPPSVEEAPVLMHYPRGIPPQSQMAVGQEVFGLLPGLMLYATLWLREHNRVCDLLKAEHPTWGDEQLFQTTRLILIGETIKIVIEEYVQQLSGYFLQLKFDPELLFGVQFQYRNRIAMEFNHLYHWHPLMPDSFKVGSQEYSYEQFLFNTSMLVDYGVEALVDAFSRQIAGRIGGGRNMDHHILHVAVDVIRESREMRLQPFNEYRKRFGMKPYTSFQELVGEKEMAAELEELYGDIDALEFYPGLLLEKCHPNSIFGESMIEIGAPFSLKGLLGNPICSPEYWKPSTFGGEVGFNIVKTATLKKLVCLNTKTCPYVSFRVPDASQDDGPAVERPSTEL

[43] = target: Sodium channel regulatory subunit beta-1 (Rattus norvegicus) (UniProt Q00954); assay: NA+/SITE2/R Eurofins SafetyScreen44 (BI); settings: Compound concentration 10.0 uM
Sodium channel regulatory subunit beta-1 (Rattus norvegicus), sequence (Q00954 whole entry): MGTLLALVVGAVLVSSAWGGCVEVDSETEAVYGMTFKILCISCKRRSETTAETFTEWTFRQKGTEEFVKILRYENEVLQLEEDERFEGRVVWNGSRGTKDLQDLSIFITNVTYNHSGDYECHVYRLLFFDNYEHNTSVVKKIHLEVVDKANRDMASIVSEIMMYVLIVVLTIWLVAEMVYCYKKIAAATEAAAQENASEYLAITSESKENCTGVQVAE

[44] = target: Muscarinic acetylcholine receptor M2 (Homo sapiens) (UniProt P08172); assay: M2/H Eurofins SafetyScreen44 (BI); settings: filed as antagonist, Compound concentration 10.0 uM

## Cn1c(C2(NC(=O)c3ccc4c(C5CCCC5)c(-c5ncc(Br)cn5)n(C)c4c3)CCC2)nc2ccc(/C=C/C(=O)O)cc21 [DELEOBUVIR]
[1]
  residual activity: 117%
[2]
  residual activity: 83%
[3]
  residual activity: 130%
[4]
  activity at 10 µM: 92% (not active)
[5]
  residual activity: 100%
[6]
  residual activity: 66%
[7]
  residual activity: 72%
[8]
  residual activity: 67%
[9]
  residual activity: 67%
[10]
  residual activity: 67%
[11]
  residual activity: 108%
[12]
  residual activity: 93%
[13]
  residual activity: 59%
[14]
  residual activity: 133%
[15]
  residual activity: 107%
[16]
  residual activity: 47%
[17]
  residual activity: 111%
[18]
  residual activity: 107%
[19]
  residual activity: 107%
[20]
  residual activity: 97%
[21]
  residual activity: 81%
[22]
  residual activity: 148%
[23]
  residual activity: 105%
[24]
  residual activity: 107%
[25]
  residual activity: 116%
[26]
  residual activity: 109%
[27]
  residual activity: 140%
[28]
  residual activity: 12%
[29]
  residual activity: 81%
[30]
  residual activity: 96%
[31]
  residual activity: 100%
[32]
  residual activity: 97%
[33]
  residual activity: 76%
[34]
  activity at 10 µM: 105% (not active)
[35]
  residual activity: 85%
hERG (KCNH2)
  activity at 10 µM: 68% (not active)
[36]
  IC50: 19 nM (active)
[37]
  residual activity: 117%
[38]
  residual activity: 83%
[39]
  residual activity: 86%
[40]
  residual activity: 140%
[41]
  residual activity: 101%
[42]
  residual activity: 73%
[43]
  residual activity: 79%
[44]
  residual activity: 104%

## Cn1c(C2(NC(=O)c3ccc(NCC4CCCCC4)nc3)CCC2)nc2ccc(/C=C/C(=O)O)cc21 [BI 7656]
[36]
  IC50: > 5000 nM (not active)
